In paper PMC9950949 (iScience, 2023):

Biological target: NLRP3 (Homo sapiens, UniProt Q96P20)
Experiment: microscale thermophoresis
Format: binding

Sequence of NLRP3 (Q96P20 whole entry): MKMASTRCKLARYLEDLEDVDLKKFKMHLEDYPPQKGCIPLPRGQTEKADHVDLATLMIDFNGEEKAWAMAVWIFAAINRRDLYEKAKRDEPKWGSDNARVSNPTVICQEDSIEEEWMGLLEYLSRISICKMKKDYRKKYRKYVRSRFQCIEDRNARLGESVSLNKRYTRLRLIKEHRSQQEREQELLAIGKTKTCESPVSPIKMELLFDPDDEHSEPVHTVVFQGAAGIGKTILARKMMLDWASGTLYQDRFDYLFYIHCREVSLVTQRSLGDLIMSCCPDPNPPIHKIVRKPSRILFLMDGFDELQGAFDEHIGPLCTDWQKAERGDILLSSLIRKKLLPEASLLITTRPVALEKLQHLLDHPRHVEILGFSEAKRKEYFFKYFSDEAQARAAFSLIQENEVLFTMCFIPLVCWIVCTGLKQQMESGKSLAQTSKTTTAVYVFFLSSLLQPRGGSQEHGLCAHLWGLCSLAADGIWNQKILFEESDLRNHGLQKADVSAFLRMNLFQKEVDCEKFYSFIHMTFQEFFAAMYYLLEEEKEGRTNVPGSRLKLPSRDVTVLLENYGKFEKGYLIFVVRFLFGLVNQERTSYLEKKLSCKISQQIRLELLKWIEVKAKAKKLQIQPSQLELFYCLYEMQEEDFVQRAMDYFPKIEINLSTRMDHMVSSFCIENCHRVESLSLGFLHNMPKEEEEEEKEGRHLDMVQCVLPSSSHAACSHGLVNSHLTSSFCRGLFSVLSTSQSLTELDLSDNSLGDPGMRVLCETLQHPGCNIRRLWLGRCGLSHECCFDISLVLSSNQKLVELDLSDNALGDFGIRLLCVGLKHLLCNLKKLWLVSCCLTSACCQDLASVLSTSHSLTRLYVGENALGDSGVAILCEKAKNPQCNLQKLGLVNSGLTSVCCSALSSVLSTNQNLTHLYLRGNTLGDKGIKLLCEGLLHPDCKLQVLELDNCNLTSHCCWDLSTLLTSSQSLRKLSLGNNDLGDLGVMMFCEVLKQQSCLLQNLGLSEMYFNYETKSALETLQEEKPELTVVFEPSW

Compound `O=C1NC(=O)[C@@H](c2cn3c4c(cccc24)CCC3)[C@@H]1c1c[nH]c2ccccc12` [Tivantinib] has a Kd of roughly 373 nM.
